Where a name gives a salt, the structure may show the parent alone. Some results are limits rather than exact numbers.

For the test, the target named is T1, human EP4 (hEP4) receptor (Homo sapiens, UniProt P35408).
T1 construct: expressed in transfected cells; host or cells: HEK-293 T cells, transient co-transfection with polyethylenimine
T1 sequence (P35408 whole entry): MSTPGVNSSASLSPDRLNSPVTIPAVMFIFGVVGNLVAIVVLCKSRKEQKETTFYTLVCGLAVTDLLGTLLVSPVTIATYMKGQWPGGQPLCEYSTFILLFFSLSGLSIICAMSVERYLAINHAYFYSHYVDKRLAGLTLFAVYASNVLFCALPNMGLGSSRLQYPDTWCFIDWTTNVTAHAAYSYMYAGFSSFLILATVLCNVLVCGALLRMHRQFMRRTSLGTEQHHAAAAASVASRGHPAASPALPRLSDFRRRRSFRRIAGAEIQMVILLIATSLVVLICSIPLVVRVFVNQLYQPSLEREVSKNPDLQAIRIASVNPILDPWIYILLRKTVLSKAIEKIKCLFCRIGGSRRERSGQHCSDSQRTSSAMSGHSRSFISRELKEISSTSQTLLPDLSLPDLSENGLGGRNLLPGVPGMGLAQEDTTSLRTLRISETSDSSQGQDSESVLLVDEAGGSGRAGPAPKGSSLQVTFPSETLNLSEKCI
Description: In vitro human EP4 functional antagonist activity using BRET biosensors (cAMP EPAC biosensor, TCS2510 stimulation). The settings on record: antagonist activity vs EC60 TCS2510, hEP4 in HEK-293 T cells. It counts as cell-based. The procedure: Examples of the present invention were tested successively for their agonist and antagonist activities on human EP4 (hEP4) receptor transiently over-expressed in HEK-293 T cells. […] The assay used to measure compound activity is based on the BRET technology. The unimolecular cAMP biosensor used to detect intracellular cAMP levels following GPCR stimulation consists of the EPAC protein fused to N- and C-terminal of Luciferase and GFP respectively.
Cell Culture and Transfection: HEK-293 T cells are maintained in Dulbecco's Modified Eagle's Medium supplemented with 10% Foetal Calf Serum, 1% Penicillin/Streptomycin at 37° C./5% CO2. Cells are co-transfected using polyethylenimine (25 kDa linear) with two DNA plasmids encoding hEP4, EPAC fused to luciferase (BRET donor) and to GFP (BRET acceptor). After transfection, cells are cultured (40,000 cells per well) for 48 h at 37° C./5% CO2.
BRET assay: Receptor activity is detected by changes in BRET signal. On the day of the assay, cells are rinsed and incubated in assay buffer (1.8 mM CaCl2, 1 mM MgCl2, 2.7 mM KCl, 137 mM NaCl, 0.4 mM NaH2PO4, 5.5 mM D-Glucose, 11.9 mM NaHCO3, 25 mM Hepes). Then, plates are equilibrated 1 h at 22° C. before adding compounds. Compounds and luciferase substrate are added to the cells using an automated device (Freedom Evo®, Tecan) and BRET readings are collected on EnVision (PerkinElmer) with specific filters (410 nm BW 80 nm, 515 nm BW 30 nm). Agonist and antagonist activities of compounds are consecutively evaluated on the same cell plate. Agonist activity is first measured after 5 min incubation with compound alone on the cells. Then, cells are stimulated by an EC60 TCS2510 concentration and luminescence is recorded for additional 10 min. EC60 TCS2510 concentration is the concentration giving 60% of the maximal TCS2510 response. Agonist or antagonist activities are evaluated in comparison to basal signals evoked by assay buffer or EC60 TCS2510 alone, respectively.
For IC50 determination, a dose-response test is performed using 10 concentrations (ranging over 4.5 logs) of each compound. Dose-response curves are fitted using the sigmoidal dose-response (variable slope) analysis in GraphPad Prism software (GraphPad Software) and IC50 of antagonist activity is calculated. Dose-response experiments are performed in duplicate, in two independent experiments. IC50 values are categorized as following: A: IC50<0.1 μM; B: IC50<1 μM.
`O=C(O)c1ccc(C2(NC(=O)C3(OCCOc4cccc(Cl)c4)CCOCC3)CC2)cc1` [Example 82, 4-[1-[[4-[2-(3-Chlorophenoxy)ethoxy]tetrahydropyran-4-carbonyl]amino]cyclopropyl]benzoic acid] displayed a 50% inhibitory concentration (IC50) of less than 100 nM.
Under `C[C@H](NC(=O)C1(N(C)CCOc2ccccc2)CCCC1)c1ccc(C(=O)O)cc1` [Example 62, 4-[(1S)-1-[[1-[Methyl(2-phenoxyethyl)amino]cyclopentanecarbonyl]amino]ethyl]benzoic acid, hydrochloride] stands less than 100 nM; under `C[C@H](NC(=O)C1(c2ccc(OCC3CCCCC3)cn2)CCCC1)c1ccc(C(=O)O)cc1` [Example 127, 4-[(1S)-1-[[1-[5-(Cyclohexylmethoxy)-2-pyridyl]cyclopentanecarbonyl]amino]ethyl]benzoic acid], less than 1000 nM; under `Cc1ccc([C@H](C)NC(=O)C2(N3CC[C@@H](Oc4cccc(C(F)(F)F)c4)C3)CCOCC2)cc1` [Example 193, N—((S)-1-(4-Methylphenyl)ethyl)-4-((R)-3-(3-(trifluoromethyl)phenoxy)pyrrolidin-1-yl)tetrahydro-2H-pyran-4-carboxamide, hydrochloride], less than 1000 nM.
Under `C[C@H](NC(=O)C1(N2CC[C@@H](Oc3cccc(C(F)(F)F)c3)C2)CCC1)c1ccc(C(N)=O)cc1` [Example 171, 4-[(1S)-1-[[1-[(3R)-3-[3-(Trifluoromethyl)phenoxy]pyrrolidin-1-yl]cyclobutane-1-carbonyl]amino]ethyl]benzamide, hydrochloride] stands less than 100 nM.
The molecule `C[C@H](NC(=O)C1(c2ccnc(OCC3CCCCC3)c2)CCOCC1)c1ccc(C(=O)O)cc1` [Example 116, 4-[(1S)-1-[[4-[2-(Cyclohexylmethoxy)-4-pyridyl]tetrahydropyran-4-carbonyl]amino]ethyl]benzoic acid] registered an IC50 of less than 1000 nM.
The molecule `Cc1cccc(O[C@@H]2CCN(C3(C(=O)NC4(c5ccc(C(=O)O)cc5)CC4)CCOCC3)C2)c1` [Example 151, 4-[1-[[4-[(3R)-3-(3-Methylphenoxy)pyrrolidin-1-yl]tetrahydropyran-4-carbonyl]amino]cyclopropyl]benzoic acid, hydrochloride] gave an IC50 of less than 100 nM.
The molecule `C[C@H](NC(=O)C1(c2ccc(OCC3CCCCC3)nc2)CCCC1)c1ccc(C(=O)O)cc1` [Example 129, 4-[(1S)-1-[[1-[6-(Cyclohexylmethoxy)-3-pyridyl]cyclopentanecarbonyl]amino]ethyl]benzoic acid] had an IC50 of less than 100 nM.
With `O=C(O)c1ccc(C2(NC(=O)C3(NCCOc4ccccc4)CCOCC3)CC2)cc1` [Example 24, 4-[1-[[4-(2-Phenoxyethylamino)tetrahydropyran-4-carbonyl]amino]cyclopropyl]benzoic acid, hydrochloride], the 50% inhibitory concentration (IC50) was less than 1000 nM.
Under `Cc1cccc(OCCNC2(C(=O)N[C@@H](C)c3ccc(C(=O)O)cc3)CCOCC2)c1` [Example 14, 4-[(1S)-1-[[4-[2-(3-Methylphenoxy)ethylamino]tetrahydropyran-4-carbonyl]amino]ethyl]benzoic acid, hydrochloride] stands less than 100 nM.
On to `CN(CCOc1ccc(F)cc1)C1(C(=O)NC2(c3ccc(C(=O)O)cc3)CC2)CCOCC1` [Example 34, 4-[1-[[4-[2-(4-Fluorophenoxy)ethyl-methyl-amino]tetrahydropyran-4-carbonyl]amino]cyclopropyl]benzoic acid, hydrochloride], for which the IC50 is less than 100 nM.
Under `CN(CCOc1ccccc1Cl)C1(C(=O)NC2(c3ccc(C(=O)O)cc3)CC2)CCOCC1` [Example 30, 4-[1-[[4-[2-(2-Chlorophenoxy)ethyl-methyl-amino]tetrahydropyran-4-carbonyl]amino]cyclopropyl]benzoic acid, hydrochloride] stands less than 100 nM.
In the case of `C[C@H](NC(=O)C1(N2CC[C@@H](Oc3cccc(C(F)(F)F)c3)C2)CCOCC1)c1ccc(S(C)(=O)=O)cc1` [Example 179, N—((S)-1-(4-(Methylsulfonyl)phenyl)ethyl)-4-((R)-3-(3-(trifluoromethyl)phenoxy)pyrrolidin-1-yl)tetrahydro-2H-pyran-4-carboxamide, hydrochloride], the IC50 is less than 100 nM.
In the case of `C[C@H](NC(=O)C1(c2cccc(OCC3CC3)c2)CCOCC1)c1ccc(C(=O)O)cc1` [Example 101, 4-[(1S)-1-[[4-[3-(Cyclopropylmethoxy)phenyl]tetrahydropyran-4-carbonyl]amino]ethyl]benzoic acid] it was less than 1000 nM; in that of `C[C@H](NC(=O)C1(N2CC[C@@H](Oc3cccc(Cl)c3)C2)CCC1)c1ccc(C(N)=O)cc1` [Example 172, 4-[(1S)-1-[[1-[(3R)-3-(3-Chlorophenoxy)pyrrolidin-1-yl]cyclobutane-1-carbonyl]amino]ethyl]benzamide, hydrochloride], less than 100 nM; in that of `C[C@H](NC(=O)C1(c2cccc(OCCC3CCCCC3)c2)CCOCC1)c1ccc(C(=O)O)cc1` [Example 105, 4-[(1S)-1-[[4-[3-(2-Cyclohexylethoxy)phenyl]tetrahydropyran-4-carbonyl]amino]ethyl]benzoic acid], less than 1000 nM.
For `C[C@H](NC(=O)C1(N2CC[C@@H](Oc3cccc(C(F)(F)F)c3)C2)CCOCC1)c1cccnc1` [Example 185, N—((S)-1-(Pyridin-3-yl)ethyl)-4-((R)-3-(3-(trifluoromethyl)phenoxy)pyrrolidin-1-yl)tetrahydro-2H-pyran-4-carboxamide, hydrochloride], the IC50 was less than 1000 nM.
`O=C(NC[C@H]1CC[C@H](C(=O)O)CC1)C1(N2CC[C@@H](Oc3cccc(C(F)(F)F)c3)C2)CCOCC1` [Example 200, (1R,4R)-4-((4-((R)-3-(3-(Trifluoromethyl)phenoxy)pyrrolidin-1-yl)tetrahydro-2H-pyran-4-carboxamido)methyl)cyclohexane-1-carboxylic acid, hydrochloride] displayed an IC50 of less than 100 nM.
In the case of `C[C@H](NC(=O)C1(c2cccc(OCC3CCCCC3)n2)CCCC1)c1ccc(C(=O)O)cc1` [Example 123, 4-[(1S)-1-[[1-[6-(Cyclohexylmethoxy)-2-pyridyl]cyclopentanecarbonyl]amino]ethyl]benzoic acid] it was less than 1000 nM.
In the case of `C[C@H](NC(=O)C1(N2CC[C@@H](Oc3cccc(C(F)(F)F)c3)C2)CCCCC1)c1ccc(C(=O)O)cc1` [Example 162, 4-[(1S)-1-[[1-[(3R)-3-[3-(Trifluoromethyl)phenoxy]pyrrolidin-1-yl]cyclohexane-1-carbonyl]amino]ethyl]benzoic acid, hydrochloride] it was less than 100 nM.
`C[C@H](NC(=O)C1(N2CC[C@@H](Oc3cccc(C(F)(F)F)c3)C2)CCOCC1)c1ccc(Br)cc1` [Example 190, N—((S)-1-(4-Bromophenyl)ethyl)-4-((R)-3-(3-(trifluoromethyl)phenoxy)pyrrolidin-1-yl)tetrahydro-2H-pyran-4-carboxamide, hydrochloride]: the IC50 is less than 1000 nM.
Under `C[C@H](NC(=O)C1(c2ccc(OCCCc3ccccc3)cc2)CCOCC1)c1ccc(C(=O)O)cc1` [Example 92, 4-[(1S)-1-[[4-[4-(3-Phenylpropoxy)phenyl]tetrahydropyran-4-carbonyl]amino]ethyl]benzoic acid] stands less than 100 nM.

(Values after US12527779B2, “Prostaglandin E2 (PGE2) EP4 receptor antagonists” (Domain Therapeutics, priority 2019, dated 2026).)
